# Data published in patent US11130801B2, “Method for inhibiting platelet derived growth factor signaling with C3aR or C5aR antibodies” (CASE WESTERN RESERVE UNIVERSITY, priority 2011, dated 2021).
# Tests used:
# [1] = system: HUVEC; assay: Complement mRNA transcripts in HUVEC by qPCR; assay type: cell-based; conditions: added C3a or C5a
# Method: FIG. 33 illustrates charts showing qRT-PCR analysis of C3, factor B and factor D transcripts from HUVEC under hypoxia. A) HUVEC treated with TNF-α, IL-1, and IFN-γ. Blue bars represent samples after treatment. B-C) HUVEC stimulated with C3a (10 ng/ml for 2 hr) or C5a (10 ng/ml for 30 min) Blue bars represent control without C3a/C5a stimulation while red bars represent samples after stimulation. D) HUVEC incubated for 1 hr with FCCP+IAA. Blue bars represent control without hypoxia treatment while yellow bars represent two samples after hypoxia treatment.
# We next conversely assessed how transducing C3aR/C5aR signals into ECs affects endogenous EC complement production and whether it is connected with “classical” EC responses. We incubated HUVEC with 1) inflammatory cytokines, 2) the mitochondrial uncoupler protonophore carbonyl cyanide p-(trifluoromethoxy)phenylhydrazone (FCCP)+iodoacetate (IAA) (which mimics hypoxia), or 3) C3a or C5a, after which we assayed complement mRNA transcripts by qPCR. […]
# ECs and leukocytes locally synthesize C3/fB/fD/C5 and the elicited C3a/C5a signal through C3aR/C5aR on the same cells to amplify this synthesis. To determine whether ECs locally synthesize AP complement components, we added IL-1/IFN-γ/TNF-α to HUVEC, 1 hr after which we quantified C3 and fB transcripts by qPCR. […]
# [2] = system: C3aR−/−C5aR−/− ECs; assay: Growth of C3aR-/-C5aR-/- primary ECs; assay type: cell-based, mice; conditions: without or with added C5a
# [3] = system: NIH-3T3 cells; assay: TGF-β1 production and effect in PDGF-AA treated NIH-3T3 cells; assay type: cell-based
# Description: Antagonizing C3aR/C5aR signal transduction induces the synthesis and activation of TGF-β1. We investigated whether TGF-β1 production might underlie the growth suppression connected with C3aR/C5aR blockade. To test this, 1) we assayed supernatants from NIH-3T3 cells treated with PDGF-AA+anti-C3a/anti-C5a mAbs and 2) following removal of anti-C3a/anti-C5a from the mAb treated NIH-3T3 cell cultures (with protein-G beads), we added supernatants without or with anti-TGF-β1 blocking antibody to fresh cultures of PDGF-AA treated NIH-3T3 cells. […] Activation of latent TGF-β1 can be dependent on Thrombospondin 1 (Tsp-1). […] Collectively, these findings indicate that 1) disruption of C3aR/C5aR signaling evokes TGF-β1 production, 2) TGF-β1 enters into an autocrine signaling loop, and 3) C3aR/C5aR signals and TGF-β1 signals oppose each other in regulating PDGF induced growth.
# [4] = system: NIH-3T3 cells; assay: C5a ELISA of NIH-3T3 culture supernatants; assay type: cell-based; conditions: PDGF-AA treated cells
# Method: FIG. 31 illustrates charts showing: (A) C5a (17 ng/mL) added to NIH-3T3 cells. Bars represent 72 hr counts. (B) PDGF-AA was added to NIH-3T3 cells and a 72 hr culture supernatants were assayed for C5a by ELISA.
# PDGF contributes to atherogenesis and plays a central role in neointimal proliferation following EC injury. In view of the growth difference of primary cultured Daf1^−/−, WT, C3aR^−/−C5aR^−/−, and C3^−/−C5^−/−SMCs, we examined whether C3aR/C5aR signals are interconnected with PDGF growth induction. For these studies, we utilized NIH-3T3 fibroblasts (which express PDGFR-αα) in conjunction with PDGF-AA. Following determination of optimal PDGF-AA doses, we incubated 1×10^5 cells/well in triplicate with 30 ng/ml of PDGF-AA±10 ng/ml of C3aR and C5aR antagonists (C3aR-A/C5aR-A), 10 ng/ml of anti-C3a/anti-C5a mAbs or respective controls, after which we quantified cell growth by counting cell numbers over time. […] To directly establish whether C5aR signals augment PDGF-AA growth signaling, we 1) quantified the effect of added C5a one growth, and 2) assayed C5a in culture supernatants of PDGF-AA treated cells. […] Because the dependence of PDGF growth induction on C3aR/C5aR signaling could be indirect, i.e., a consequence of its requirement for viability, we performed cell cycle assays.
# [5] = system: Stat3; assay: Stat3 phosphorylation in serum starved MS-1 cells; assay type: cell-based, murine; conditions: growth factor alone
# Method: FIG. 29 illustrates a chart showing phosphor-Stat3 of serum starved MS-1 cells incubated for 10 min at 37° C. with VEGF-A or IL-6 in the absence or presence of anti-IL-6 mAb or C3aR-A/C5aR-A.
# Numerous past studies have linked VEGF with both IL-6 and p-Stat3 our prior studies by ourselves has shown that C5a induces IL-6 and that IL-6 signaling is interconnected with C3aR/C5aR signaling. To determine if the linkage between VEGF and C3aR/C5aR signaling in ECs involves IL-6, we incubated MS-1 ECs with 1) VEGF-A alone, IL-6 alone, or VEGF-A plus anti-IL-6 mAb, or with 2) IL-6 alone or IL-6 plus C3aR-A/C5aR-A, and assayed cell growth. […] The growth induction of ECs of IL-6, like that of VEGF-A, was abolished by C3aR-A/C5aR-A (FIG. 28). Both VEGF-A and IL-6 induced Stat3 phosphorylation and the Stat3 phosphorylation in both cases was abolished by C3aR/C5aR antagonism (FIG. 29). […] These finding thus indicate that VEGF interconnects with C3aR/C5aR signaling via the induction of IL-6 and its activation of Stat3.
# [6] = system: MS-1 ECs; assay: Growth of MS-1 ECs with VEGF-A or IL-6; assay type: cell-based, murine; conditions: IL-6 alone
# Method: FIG. 27 illustrates plots showing the growth of ECs in response to VEGF induces C3aR/C5aR signaling via an IL-6 and Stat3 dependent mechanism. VEGF-A was added to serum starved MS-1 cells in the absence or presence of anti-IL-6 neutralizing mAb (2 μg/ml) and growth was quantified at 24, […] and 72 hr.
# FIG. 28 illustrates plots showing the growth of serum starved MS-1 cells in the absence or presence of C3aR-A/C5aR-A (10 ng/ml each) and IL-6 (10 ng/ml) at 24, 48 and 72 hr.
# For studies with bEnd.3 and MS-1 cells, 5×10^4 cells were plated in 24-well plates and allowed to adhere for 24 hr. Following culturing in 0.5% FBS with DMEM for another 24 hours, the cells were treated as described in the FIG. legends. Growth was quantified manually at 24, 48 and 72 hr with trypan blue. At least 95% of cells were viable in all experiments. VEGF-A was used at a concentration of 30 ng/ml, C3a and C5a at 1 ug/ml, and […] at I ug/ml.
# Numerous past studies have linked VEGF with both IL-6 and p-Stat3 our prior studies by ourselves has shown that C5a induces IL-6 and that IL-6 signaling is interconnected with C3aR/C5aR signaling. To determine if the linkage between VEGF and C3aR/C5aR signaling in ECs involves IL-6, we incubated MS-1 ECs with 1) VEGF-A alone, IL-6 alone, or VEGF-A plus anti-IL-6 mAb, or with 2) IL-6 alone or IL-6 plus C3aR-A/C5aR-A, and assayed cell growth. […]
# [7] = system: ECs; assay: Proliferation of ECs in response to VEGF-A stimulation (thrombin/MMP inhibitors); assay type: cell-based
# Description: (§1) Since some MMPs (MMP-9) is/are constitutively expressed and prothrombin synthesis and secretion might be induced by VEGF-A, prothrombin can cleaved to thrombin by an MMP, e.g., MMP-9 and thrombin, in turn, generates C5a from locally produced C5. The MMP inhibitor alternatively could exert its inhibitory effect on VEGF-A induced EC growth by the pathway that couples C3aR/C5aR signal transduction back to VEGFR2.
# [8] = system: T cell; assay: T cell activation in response to anti-CD3/28 stimulation; assay type: cell-based
# Description: as §1
compound,measurement,setting,value
C3a: complement activation fragment (anaphylatoxin) added to cells,production of AP components by ECs,[1],more AP components
same,transcription of C3,[1],increased
Cc1cc(C)c(/C=C2\C(=O)Nc3ccccc32)[nH]1 [SU5416],growth of C3aR−/−C5aR−/− ECs,[2],abolished
TGF-β1: active TGF-β1 elicited in supernatants of mAb treated NIH-3T3 cells,suppression of PDGF-AA induced growth,[3]; elicited TGF-β1 in transferred supernatants,5 fold
"PDGF-AA: platelet derived growth factor, 30 ng/ml",C5a generation by NIH-3T3 cells,[4],amplified
same,suppression of TGF-β1 mRNA transcription,[3]; RT-PCR of PDGF-AA treated cells,~3 fold
IL-6: cytokine added to MS-1 cells (10 ng/ml),Stat3 phosphorylation,[5],induced
same,induction of EC growth,[6],comparably to VEGF-A
NC(N)=NCCC[C@H](NC(=O)[C@@H]1CCCN1C(=O)[C@H](N)Cc1ccccc1)C(=O)CCl [PPACK],proliferation of ECs / VEGF induced EC growth induction,[7],abolish
same,T cell activation,[8],virtually abolish
ANGIOMAX: thrombin specific inhibitor,proliferation of ECs / VEGF induced EC growth induction,[7],abolish
same,T cell activation,[8],virtually abolish
